Experimental data as given in article PMC9621233, “4-Cyanamidobenzenesulfonamide derivatives: a novel class of human and bacterial carbonic anhydrase inhibitors” (Journal of Enzyme Inhibition and Medicinal Chemistry, 2022).

Assays:
Assay in all cases: stopped-flow CO2 hydration assay, phenol red
[1] = target: T1, hCA I (Homo sapiens, UniProt P00915); assay type: biochemical; details: read-out: KI (nM)^a / hCA I (α-CA)
T1 construct: gene CA1; recombinant, obtained in-house; cytosolic alpha-CA
From the text: stopped-flow CO2 hydration assay, phenol red on hCA I

[2] = target: T2, MscCA; assay type: biochemical, Mammaliicoccus sciuri; details: […] TRIS pH […] Na2SO4, […] h preincubation, room temperature; read-out: KI (nM)^a / MscCA (β-CA)
T2 construct: recombinant beta-CA, obtained in-house; earlier published as SauCA

[3] = target: T3, StCA2; assay type: biochemical, Salmonella enterica subsp. enterica serovar Typhimurium; details: […] TRIS pH […] Na2SO4, […] h preincubation, room temperature; read-out: KI (nM)^a / StCA2 (β-CA)
T3 construct: recombinant beta-CA, obtained in-house

[4] = target: T4, hCA VII (Homo sapiens, UniProt P43166); assay type: biochemical; details: read-out: KI (nM)^a / hCA VII (α-CA)
T4 construct: gene CA7; recombinant, obtained in-house; cytosolic alpha-CA
T4 sequence (P43166 whole entry): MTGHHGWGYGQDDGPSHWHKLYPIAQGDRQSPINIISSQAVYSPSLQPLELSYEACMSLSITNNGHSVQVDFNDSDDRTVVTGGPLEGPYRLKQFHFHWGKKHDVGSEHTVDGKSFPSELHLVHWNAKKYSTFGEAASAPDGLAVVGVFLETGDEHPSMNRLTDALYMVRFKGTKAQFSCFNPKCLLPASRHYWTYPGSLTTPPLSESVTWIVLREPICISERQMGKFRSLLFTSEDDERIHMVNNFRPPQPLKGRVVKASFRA
From the text: stopped-flow CO2 hydration assay, phenol red on hCA VII

[5] = target: T5, StCA1; assay type: biochemical, Salmonella enterica subsp. enterica serovar Typhimurium; details: […] TRIS pH […] Na2SO4, […] h preincubation, room temperature; read-out: KI (nM)^a / StCA1 (β-CA)
T5 construct: recombinant beta-CA, obtained in-house

[6] = target: T6, hCA XIII (Homo sapiens, UniProt Q8N1Q1); assay type: biochemical; details: read-out: KI (nM)^a / hCA XIII (α-CA)
T6 construct: gene CA13; recombinant, obtained in-house; cytosolic alpha-CA
T6 sequence (Q8N1Q1 whole entry): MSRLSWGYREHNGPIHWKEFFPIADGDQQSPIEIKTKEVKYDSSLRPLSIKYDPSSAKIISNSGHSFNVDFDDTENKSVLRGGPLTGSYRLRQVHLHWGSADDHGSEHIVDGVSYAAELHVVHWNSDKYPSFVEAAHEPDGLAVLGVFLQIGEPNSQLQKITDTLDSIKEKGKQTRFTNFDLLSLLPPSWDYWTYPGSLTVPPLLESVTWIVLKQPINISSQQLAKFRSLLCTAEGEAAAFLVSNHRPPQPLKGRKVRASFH
From the text: stopped-flow CO2 hydration assay, phenol red on hCA XIII

[7] = target: T7, hCA II (Homo sapiens, UniProt P00918); assay type: biochemical; details: read-out: KI (nM)^a / hCA II (α-CA)
T7 construct: gene CA2; recombinant, obtained in-house; cytosolic alpha-CA
From the text: stopped-flow CO2 hydration assay, phenol red on hCA II

T1 sequence (P00915 2-261): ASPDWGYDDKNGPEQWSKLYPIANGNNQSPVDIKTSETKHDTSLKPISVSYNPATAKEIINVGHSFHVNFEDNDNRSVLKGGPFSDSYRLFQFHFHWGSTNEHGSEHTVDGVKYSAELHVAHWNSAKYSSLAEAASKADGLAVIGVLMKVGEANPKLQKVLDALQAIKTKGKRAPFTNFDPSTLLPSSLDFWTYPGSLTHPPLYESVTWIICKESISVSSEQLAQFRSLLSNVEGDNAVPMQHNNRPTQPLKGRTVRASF

What does the source list for `CCN(C#N)c1ccc(S(N)(=O)=O)cc1` [compound 9, 4-(N-Ethylcyanamido)benzenesulfonamide]?
Ki [1]: 88.6 nM; Ki [2]: 3150 nM; Ki [3]: 367 nM; Ki [4]: 17.9 nM; Ki [5]: 61.5 nM; Ki [6]: 476 nM; Ki [7]: 45.3 nM

Which results are given for `N#CN(Cc1ccccc1)c1ccc(S(N)(=O)=O)cc1` [compound 16, 4-(N-Benzylcyanamido)benzenesulfonamide]?
Ki [1]: 67.3 nM; Ki [2]: 9360 nM; Ki [3]: 692 nM; Ki [4]: 2 nM; Ki [5]: 50.7 nM; Ki [6]: 67.8 nM; Ki [7]: 61.4 nM

For `CCCCN(C#N)c1ccc(S(N)(=O)=O)cc1` [compound 10, 4-(N-Butylcyanamido)benzenesulfonamide], which Ki [1] is on record?
The Ki was 16.4 nM.

What about the Ki [2] of the same compound?
The Ki was 4480 nM.

What about the Ki [3] of the same compound?
Its Ki is 426 nM.

What about the Ki [4] of the same compound?
Its Ki is 1.3 nM.

And the Ki [5]?
Its Ki is 62.7 nM.

What about the Ki [6] of the same compound?
Its Ki is 70.7 nM.

What about the Ki [7] of the same compound?
The Ki was 32 nM.

`CN(C#N)c1ccc(S(N)(=O)=O)cc1` [compound 8, 4-(N-Methylcyanamido)benzenesulfonamide] was tested. Which Ki [1] did it give?
The Ki was 557 nM.

What about the Ki [2] of the same compound?
Its Ki is 1580 nM.

What about the Ki [3] of the same compound?
Its Ki is 200 nM.

What about the Ki [4] of the same compound?
Its Ki is 13.8 nM.

What about the Ki [5] of the same compound?
Its Ki is 52.7 nM.

And the Ki [6]?
Its Ki is 117 nM.

What about the Ki [7] of the same compound?
The Ki was 29.2 nM.

Which results are given for `N#CN(Cc1ccc(Br)cc1)c1ccc(S(N)(=O)=O)cc1` [compound 17, 4-(N-(4-Bromobenzyl)cyanamido)benzenesulfonamide]?
Ki [1]: 389 nM; Ki [2]: 9590 nM; Ki [3]: 750 nM; Ki [4]: 2.4 nM; Ki [5]: 73.1 nM; Ki [6]: 53.1 nM; Ki [7]: 93.3 nM

What does the source list for `C=CCN(C#N)c1ccc(S(N)(=O)=O)cc1` [compound 15, 4-(N-Allylcyanamido)benzenesulfonamide]?
Ki [1]: 74.7 nM; Ki [2]: 5100 nM; Ki [3]: 645 nM; Ki [4]: 2.3 nM; Ki [5]: 51.2 nM; Ki [6]: 97.7 nM; Ki [7]: 54.1 nM

What does the source list for `N#CN(c1ccc(S(N)(=O)=O)cc1)C1CCCCC1` [compound 14, 4-(N-Cyclohexylcyanamido)benzenesulfonamide]?
Ki [1]: 50.6 nM; Ki [2]: 5360 nM; Ki [3]: 579 nM; Ki [4]: 1.9 nM; Ki [5]: 69.5 nM; Ki [6]: 83.8 nM; Ki [7]: 82.3 nM

What does the source list for `CCCCCCN(C#N)c1ccc(S(N)(=O)=O)cc1` [compound 11, 4-(N-Hexylcyanamido)benzenesulfonamide]?
Ki [1]: 9.3 nM; Ki [2]: 6880 nM; Ki [3]: 718 nM; Ki [4]: 1.5 nM; Ki [5]: 54.6 nM; Ki [6]: 83 nM; Ki [7]: 5.3 nM

Which results are given for `CCCCCCCCCCCCCCCCCCN(C#N)c1ccc(S(N)(=O)=O)cc1` [compound 13, 4-(N-Octadecylcyanamido)benzenesulfonamide]?
Ki [1]: 17.3 nM; Ki [2]: 9170 nM; Ki [3]: 791 nM; Ki [4]: 2.2 nM; Ki [5]: 66.1 nM; Ki [6]: 155 nM; Ki [7]: 9.5 nM

How did the Ki [1] turn out when `CCCCCCCN(C#N)c1ccc(S(N)(=O)=O)cc1` [compound 12, 4-(N-Heptylcyanamido)benzenesulfonamide] was run?
Its Ki is 38.2 nM.

And the Ki [2]?
Its Ki is 7190 nM.

And the Ki [3]?
Its Ki is 676 nM.

And the Ki [4]?
The Ki was 1.7 nM.

And the Ki [5]?
Its Ki is 58.8 nM.

And the Ki [6]?
The Ki was 31.5 nM.

And the Ki [7]?
Its Ki is 7.1 nM.
